Experimental data as given in patent US10716797B2, “Steroid alkaloids and compositions and kits thereof” (priority 2013, dated 2020).
“Also recorded” adds a separate entry of the source.

Test system: S. aureus SCV strain CF07-S in polarized Calu-3 epithelial cells
Assay: Intracellular replication of SCV in Calu-3 cell infection assay
Assay type: cell-based, Staphylococcus aureus
Conditions: 2 and 4 μg/ml; 48 h post-internalization; vs DMSO-treated cells; hydrochloride
Method: Human airway epithelial cells, the Calu-3 cell line ATCC HTB 55, were used in this cell culture assay. Cells were cultured in Eagle's Minimum Essential Medium (EMEM) supplemented with 0.1 mM MEM nonessential amino acids, 1 mM of sodium pyruvate, 100 U/ml penicillin, 0.1 mg/ml streptomycin, 2.5 μg/ml of Fungizone and 10% fetal bovine serum (FBS) at 37° C. in 5% CO2. For routine culture, 4 μg/ml of puromycin was added to culture media. All cell culture reagents were purchased from Wisent (St-Bruno, QC, Canada). Cell infection assays were performed as previously described (Mitchell et al., 2011). Cells were seeded at 2.5×10^5 cells/inserts on 12-well Transwell™ plates and cultured for 9 to 10 days in an air:liquid system. The complete medium in the basal compartment was replaced by the invasion medium (1% FBS and no antibiotics) 18 h before assays. Inocula were prepared by suspending bacteria grown 20 h on BHIA plates in ice-cold PBS. Bacteria (the S. aureus SCV strain CF07-S; Mitchell et al., 2011) were then washed three times in ice-cold PBS and suspended in the invasion medium supplemented with 0.5% BSA at a density of approximately 4×10^8 CFU/ml. […] Fresh invasion medium supplemented with lysostaphin was also added 1 h before cell lysis to ensure that only intracellular bacteria were counted. […]

## 3-(N-aminoethyl)-aminotomatidine hydrochloride [Compound 14]
  intracellular SCVs in Calu-3 cells (CFU): can significantly decrease the infection; also recorded: significantly less SCVs
